Data from US11098040B2, “Compounds and methods of use” (Ferro Therapeutics, Inc., priority 2018, dated 2021).

How the values were obtained:
H2228 = assay: Cell viability assay (CellTiter Glo), lung cancer cell line H2228; assay type: cell-based; details: Homo sapiens, NCI-H2228; Cell Line H2228; read-out: IC50
Procedure, shortened: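 Cells were seeded at 500-5,000/well (adherent) or 5,000-10,000/well (suspension), left overnight at 37° C, then exposed to a 9-point 3-fold compound dilution series from up to 30 μM, final DMSO 0.25% or less. After 96 h, viability was read by CellTiter Glo luminescence.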

MiaPaCa-2 = assay: Cell viability assay (CellTiter Glo), pancreatic carcinoma MiaPaCa-2; assay type: cell-based; details: Homo sapiens; Cell Line Mia PaCa-2; read-out: IC50
Procedure, shortened: (§1)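 MiaPaCa-2 and AsPC-1 cells were seeded overnight at 37 °C and exposed for 96 h to 9-point, 3-fold dilutions from up to 30 μM (final DMSO ≤0.25%). CellTiter Glo luminescence was read, and inhibition was calculated relative to DMSO-only cells. IC50, relative IC50 or % top inhibition was derived.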

AsPC-1 = assay: Cell viability assay (CellTiter Glo), pancreatic adenocarcinoma AsPC-1; assay type: cell-based; details: Homo sapiens, ASPC1; Cell Line AsPC-1; read-out: IC50
Procedure, shortened: as §1

HT-1080 luc2 = assay: Cell viability assay (CellTiter Glo), fibrosarcoma HT-1080 luc2; assay type: cell-based; details: Homo sapiens, Cell Line HT1080, read-out: IC50
Procedure, shortened: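 HT-1080 luc2 fibrosarcoma cells seeded overnight, then exposed 96 h at 37° C to 9-point 3-fold dilutions (top up to 30 μM; DMSO ≤0.25% final). CellTiter Glo luminescence; % inhibition relative to DMSO-only wells, fitted to IC50, relative IC50 or % top inhibition.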

A549 = assay: Cell viability assay, A549 cells; assay type: cell-based; details: Homo sapiens, A549, Cell Line A549; read-out: IC50
Procedure, shortened: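 Growth of A549 cells was assessed with a cell viability assay. Cells were plated at 1,000-10,000 cells/well in 96-well plates and incubated overnight at 37° C. Nine-point 3-fold DMSO dilutions, starting from 30 μM and run in duplicate, were diluted into media (final DMSO 0.25% or less). After 96 hours, CellTiter Glo luminescence was read, inhibition was calculated against DMSO controls, and IC50 was fitted in XL-fit.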

SJSA-1 = assay: Cell proliferation (Alamar Blue) assay, SJSA-1 osteosarcoma, with/without ferrostatin; assay type: cell-based, human; details: Homo sapiens, SJSA-1, Cell Line SJSA-1; read-out: IC50
Procedure, shortened: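 Cells seeded at 5000/well, 16-24 h, then exposed 24 h at 37° C to compound, 10-0.0005 μM in 3-fold dilutions, 1% DMSO final. Alamar Blue fluorescence (ex 540/em 590 nm) read after 1.5 h; IC50 from variable-slope sigmoidal fit.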

Panc 02.13 = assay: Cell proliferation assay, pancreatic cancer cell line Panc 02.13; assay type: cell-based
Experimental: (§2) Cell viability assay was performed to assess the potency of the compounds in human cancer cell lines 786-O (renal cell carcinoma) and SJSA-1 (osteosarcoma). Additional cell lines, such as those described above in Example 4 as well as various others, e.g., pancreatic cancer cell lines (Panc 02.13, BxPC-3, Panc 12, Panc 02.03, Panc 6.03, PSN-1, HPAC, and Capan-1) and prostate cancer cell lines (PC-3, DU145, 22Rv1, NCI-H660, BPH1, LNCaP, BM-1604, and MDA PCa 2b), were tested for select compounds as shown in Table 25.
(§3) The cell proliferation assays for the compounds shown Table 25 was performed according to the protocols described herein, including Examples 4 and 6.

BxPC-3 = assay: Cell proliferation assay, pancreatic cancer cell line BxPC-3; assay type: cell-based; details: Homo sapiens
Experimental: as §2, §3

Panc 12 = assay: Cell proliferation assay, pancreatic cancer cell line Panc 12; assay type: cell-based
Experimental: as §2, §3

Panc 02.03 = assay: Cell proliferation assay, pancreatic cancer cell line Panc 02.03; assay type: cell-based; details: Homo sapiens
Experimental: as §2, §3

Panc 6.03 = assay: Cell proliferation assay, pancreatic cancer cell line Panc 6.03; assay type: cell-based
Experimental: as §2, §3

PSN-1 = assay: Cell proliferation assay, pancreatic cancer cell line PSN-1; assay type: cell-based; details: Homo sapiens, PSN1
Experimental: as §2, §3

HPAC = assay: Cell proliferation assay, pancreatic cancer cell line HPAC; assay type: cell-based; details: Homo sapiens
Experimental: as §2, §3

Capan-1 = assay: Cell proliferation assay, pancreatic cancer cell line Capan-1; assay type: cell-based; details: Homo sapiens
Experimental: as §2, §3

KHOS/NP = assay: Cell proliferation assay, KHOS/NP (Table 25); assay type: cell-based; details: Homo sapiens, Cell Line KHOS/NP
Experimental: as §2, §3

MG-63 = assay: Cell proliferation assay, MG-63 (Table 25); assay type: cell-based; details: Homo sapiens
Experimental: as §2, §3

KSK-ES-1 = assay: Cell proliferation assay, KSK-ES-1 (Table 25); assay type: cell-based; details: Cell Line KSK-ES-1
Experimental: as §2, §3

U-2 OS = assay: Cell proliferation assay, U-2 OS (Table 25); assay type: cell-based; details: Homo sapiens, U2OS; Cell Line U-2 OS
Experimental: as §2, §3

KP4 = assay: Cell viability assay (CellTiter Glo), pancreatic ductal adenocarcinoma KP4; assay type: cell-based, human; details: Homo sapiens, KP-4, 96 h, pancreatic cancer cell line KP4, 96 hours, CellTiter Glo; read-out: IC50 μM KP4
Procedure, shortened: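 Luminescent ATP readout (CellTiter Glo) after 96 h compound exposure, normalized to DMSO-treated cells as maximum. Compounds ran in duplicate, nine 3-fold steps from 30 μM down to 4.6 nM, final DMSO ≤0.25%; KP4 plated overnight at 1,000–10,000 cells/well. Outputs: IC50, relative IC50 or % top inhibition.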

[1] = Whole blood stability, mouse; assay type: in vitro ADME
Text: (§4) The results of the assay on stability in blood and IC50 values for pancreatic cancer cell line KP4 are given below in Table 24.

[2] = Whole blood stability, human; assay type: in vitro ADME
Text: as §4

A673 = assay: Cell proliferation assay, A673 (Table 25); assay type: cell-based; details: Homo sapiens, A673, Cell Line A673
Experimental: as §2, §3

143B = assay: Cell viability assay (CellTiter Glo), osteosarcoma 143B; assay type: cell-based; details: Homo sapiens, Cell Line 143B, read-out: IC50
Procedure, shortened: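 Cells seeded at 500-5,000/well overnight, then 96 h exposure to 9-point 3-fold dilutions from up to 30 μM (4.6 nM-30 μM), final DMSO ≤0.25%. Viability by CellTiter Glo luminescence; inhibition relative to DMSO-only cells, yielding IC50, relative IC50 or % top inhibition.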

PC-3 = assay: Cell proliferation assay, prostate cancer cell line PC-3; assay type: cell-based; details: Homo sapiens
Experimental: as §2, §3

DU145 = assay: Cell proliferation assay, prostate cancer cell line DU145; assay type: cell-based; details: Homo sapiens, DU-145
Experimental: as §2, §3

22Rv1 = assay: Cell proliferation assay, prostate cancer cell line 22Rv1; assay type: cell-based; details: Homo sapiens
Experimental: as §2, §3

NCI-H660 = assay: Cell proliferation assay, prostate cancer cell line NCI-H660; assay type: cell-based
Experimental: as §2, §3

BPH1 = assay: Cell proliferation assay, prostate cancer cell line BPH1; assay type: cell-based; details: Homo sapiens, BPH-1
Experimental: as §2, §3

LNCaP = assay: Cell proliferation assay, prostate cancer cell line LNCaP; assay type: cell-based; details: Homo sapiens
Experimental: as §2, §3

BM-1604 = assay: Cell proliferation assay, prostate cancer cell line BM-1604; assay type: cell-based
Experimental: as §2, §3

MDA PCa 2b = assay: Cell proliferation assay, prostate cancer cell line MDA PCa 2b; assay type: cell-based
Experimental: as §2, §3

| IC50 (H2228) | IC50 (MiaPaCa-2) | IC50 (AsPC-1) | IC50 (HT-1080 luc2) | IC50 (A549) | IC50 (Panc 02.13) | IC50 (BxPC-3) | IC50 (Panc 02.03) | IC50 (Panc 6.03) | IC50 (PSN-1) | IC50 (HPAC) | IC50 (Capan-1) | SMILES | IC50 (MG-63; MG-63, Cell Line MG-63) | IC50 (U-2 OS) | also measured |
| --- | --- | --- | --- | --- | --- | --- | --- | --- | --- | --- | --- | --- | --- | --- | --- |
| 16.6 nM | 206 nM | 69.3 nM | 63.2 nM | 7810 nM | 978 nM | 1020 nM | 689 nM | 225 nM | 175 nM | 206 nM | > 1000 nM | COc1ccc2[nH]c3c(c2c1)C[C@H](C)N(C(=O)CCl)[C@H]3c1ccc(N2CCOCC2)cc1 [Example 121] | 535 nM | 4890 nM | IC50 (SJSA-1): 108 nM; IC50 (Panc 12; Cell Line Panc 10): 58.6 nM; IC50 (KHOS/NP): 63.2 nM; IC50 (KSK-ES-1): 215 nM |
| – | – | – | – | – | – | – | – | – | – | – | – | COc1ccc2[nH]c3c(c2c1)C[C@H](C)N(C(=O)CCl)[C@H]3c1ccc(N2CCOCC2)cc1 [Compound 121] | – | – | IC50 (KP4): < 0.01 µM; Whole Blood Stability % Remaining at 37° C. Mouse ([1]; 0 min): 100.0%; Whole Blood Stability % Remaining at 37° C. Mouse ([1]; 30 min): 84.3%; Whole Blood Stability % Remaining at 37° C. Mouse ([1]; 60 min): 50.0%; Whole Blood Stability % Remaining at 37° C. Human ([2]; 0 min): 100.0%; Whole Blood Stability % Remaining at 37° C. Human ([2]; 30 min): 90.3%; Whole Blood Stability % Remaining at 37° C. Human ([2]; 60 min): 61.3%; IC50 (A673): 88.5 nM |
| 1.7 nM | 35.1 nM | 7.57 nM | 4.82 nM | 5700 nM | 120 nM | 71.1 nM | 64.1 nM | 16.9 nM | 19.9 nM | 28.6 nM | 169 nM | CCCC[C@H]1Cc2c([nH]c3ccccc23)[C@H](c2ccc(N3CCOCC3)cc2)N1C(=O)CCl [Compound 240] | 39.7 nM | 4280 nM | IC50 (143B): 5.22 nM; IC50 (Panc 12; Cell Line Panc 11): 8.55 nM; IC50 (PC-3): 3.9 nM; IC50 (DU145): 6.2 nM; IC50 (22Rv1): 22.9 nM; IC50 (NCI-H660): 31.7 nM; IC50 (BPH1): 203 nM; IC50 (LNCaP): 574 nM; IC50 (BM-1604): > 2000 nM; IC50 (MDA PCa 2b): > 2000 nM; IC50 (MG-63; MG-63, Cell Line MG-68): > 3000 nM |
